The text below walks through data of PMC6100512, “In-Vitro Activity of Silybin and Related Flavonolignans against Leishmania infantum and L. donovani” (Molecules : A Journal of Synthetic Chemistry and Natural …, 2018).

In one assay the test system is Li UCM9 promastigotes. Put plainly: Multiplication of Li promastigotes in vitro (CellTiter-Glo, 24 h). Format: cell-based, Leishmania infantum. To be noted: for IC50: approximate, dose-response curve; for IC50 / inhibition of growth at 120 µM: 24 h; for inhibition of growth at 120 µM: compared to untreated cultures, mean ± SD, read-out: Reduction (%) of multiplication, L infantum promastigotes; for Emax: exploratory screening, 0.94 µM up to 120 µM, read-out: Maximal effect (inhibition of growth of control cultures) on Li promastigotes. On the procedure: (§1) Growth was estimated by the addition of CellTiter-Glo® (Promega, Madison, WI, USA) (1:1) in 96-well microtiter white plates (Costar, Corning). After 10 min incubation (light protected, room temperature), luminescence was determined with FLUOstar Omega (BMG Labtech) reader. Sensitivity of Ld was similarly performed with promastigotes exposed to 120 μM. Control cultures (medium, untreated promastigotes, promastigotes treated with 0.2 μM AmB) were included. Experiment was carried out in triplicate and results expressed as % of inhibition of untreated control. Approximate IC50 values of the flavonolignans showing the highest inhibitory activity against Li mid-log-phase promastigotes were determined using dose-response curves. […] The compound with the highest activity, DhiS-A, was assayed against Ld promastigotes using the latter dilution series and the same culture conditions as above. For comparative purposes, mid-log promastigotes of Li and Ld were exposed to established anti-Leishmania agents: AmB (0.0078 μ[…] and 1.0 μM); […]

The next assay relates to Li promastigotes. The assay is described as follows: Drug combination with DhiS-A, Chou-Talalay method (CalcuSyn). Format: cell-based, Leishmania infantum. The conditions noted are these: for Dose Required of Dn in combination with DhiS-A: computer-simulated; for DRI of Dn in combination with DhiS-A: fold dose reduction vs single agent; for Type of interaction with DhiS-A: Li promastigotes, fixed ratios AmB 0.01:15, Sb^III 1:1, PMM 5:1 (Dn:DhiS-A). The protocol: Fixed-combination ratios of drugs were based on the IC50 values determined for the individual molecules. Mid-log-phase promastigotes of Li were exposed for 24 h at constant ratios of 0.01:15 (AmB:DhiS-A), 1:1 (Sb^III:DhiS-A) and 5:1 (PMM:DhiS-A). Dose–response curves of the combinations were analyzed with the Chou–Talalay method, based on the theorem of combination index (CI)-isobologram and CalcuSyn software. This method allows the evaluation of the type of interaction between two molecules according to mass action law. Results can be used to determine quantitatively the synergy (CI < 1), additive effect (CI = 1) or antagonism (CI > 1) of combinations. Moreover, the program allows the calculation of the drug reduction index (DRI): dose reduction in drug combinations to reach a given inhibition compared to the activity of the individual drugs.

For assay [1], the system named is intracellular amastigotes of Li BCN150. Put plainly: Activity against intracellular amastigotes ex vivo in mouse peritoneal Mφ. Format: cell-based, Leishmania infantum. The conditions noted are these: 0.1 µM, 24 h. The protocol: Antiproliferative activity of flavonolignans against intracellular amastigotes was determined ex vivo using mouse peritoneal Mφ. Infections were carried out following the method and modifications described by us. Briefly, Mφ were seeded onto 8-well cell culture slides (SLP, Lifesciences Co., Pocheon, Korea) in a final volume of 400 µL (2.5 × 10^4 Mφ/well). Plates were incubated overnight at 37 °C under humidified 5% CO2/95% air atmosphere to facilitate adherence. Stationary-phase promastigotes of Ld and Li were centrifuged (370× g, 10 min) without break in a Ficoll (Sigma, Saint Louis, MO, USA) gradient (0%, 10% in Medium 199 and 30% in sterile phosphate-buffered saline). Metacyclic promastigotes, located in the 10–30% Ficoll interphase, were recovered, washed and opsonized in 15% normal mouse serum in 1:1 solution of RPMI and HBSS medium (Gibco, Life Technologies, Paisley, UK), 0.15 mM CaCl2 and 1 mM MgCl2 at 37 °C, 5% CO2 atmosphere for 30 min. Purified metacyclic promastigotes were added to the Mφ cultures using a ratio 4:1 (promastigotes:Mφ) for Li and 10:1 for Ld. Plates were incubated at 33 °C overnight as above. Noninternalized promastigotes were eliminated by repeated washing with fresh medium. Treatments (10 µM) were added to the cultures and kept for 24 h. Slides were methanol-fixed and stained with May–Grünwald Giemsa (Merck) to determine the % of infection and the number of amastigotes/100 Mφ under microscope. Cultures untreated, treated with 0.05% DMSO and treated with 0.1 µM AmB were included as controls. Experiments were done in triplicate and the activity was expressed as % of inhibition compared to untreated cultures.

The test system of another assay is Ld promastigotes. Put plainly: Multiplication of Ld promastigotes in vitro (CellTiter-Glo, 24 h). Format: cell-based, L. donovani. The conditions noted are these: Leishmania donovani; for inhibition of growth at 120 µM: compared to untreated cultures, mean ± SD, read-out: Reduction (%) of multiplication, L. donovani promastigotes. On the procedure:
as §1

In assay [2] the test system is BALB/c mouse peritoneal macrophages, Mφ. Put plainly: Toxicity of flavonolignans for macrophages (CellTiter-Glo). It is filed as cell-based. To be noted: Peritoneal macrophage, 24 h, 28.125 to 900 µM, approximate. The protocol:
Toxicity of flavonolignans for mammalian cells was determined using mouse peritoneal Mφ. Cells obtained were counted and seeded onto 96-well cultures plates (Costar, Corning) at a final concentration of 5 × 10^4 Mφ/well (100 µL/well). Plates were incubated overnight at 37 °C and humidified 5% CO2/95% air to facilitate adherence. Cells were cultured as above for 24 h with different concentrations of the flavonolignans (28.125 µM, 56.25 µM, 112.5 µM, 225 µM, 450 µM and 900 µM). After incubation, cell viability was determined with CellTiter-Glo® as previously described. Untreated and 300 µM AmB-treated control wells were included. Experiments were done in triplicate and approximate IC50 determined.

The mark [3] stands for this setting: ED50 (50% growth inhibition), constant ratio Dn:DhiS-A (AmB 0.01:15; Sb^III 1:1; PMM 5:1).
Where [4] appears, read: ED75 (75% growth inhibition), constant ratio Dn:DhiS-A (AmB 0.01:15; Sb^III 1:1; PMM 5:1).
Where [5] appears, read: ED90 (90% growth inhibition), constant ratio Dn:DhiS-A (AmB 0.01:15; Sb^III 1:1; PMM 5:1).
The mark [6] stands for this setting: ED95 (95% growth inhibition), constant ratio Dn:DhiS-A (AmB 0.01:15; Sb^III 1:1; PMM 5:1).

With `C[C@@H]1[C@H](O)[C@@H](C)/C=C/C=C/C=C/C=C/C=C/C=C/C=C/[C@H](O[C@@H]2O[C@H](C)[C@@H](O)[C@H](N)[C@@H]2O)C[C@@H]2O[C@](O)(C[C@@H](O)C[C@@H](O)[C@H](O)CC[C@@H](O)C[C@@H](O)CC(=O)O[C@H]1C)C[C@H](O)[C@H]2C(=O)O` [AmB, amphotericin B], the IC50 is approximately 0.06 µM in the assay with Li UCM9 promastigotes (Leishmania infantum) and approximately 0.06 µM in the assay on Ld promastigotes (approximate, dose-response curve). Besides, the “CI value of combination Dn + DhiS-A” value in the assay on Li promastigotes (ED10 (10% growth inhibition), constant ratio Dn:DhiS-A (AmB 0.01:15)) is reported as 1.49 (antagonism); in the assay with Li promastigotes (ED25 (25% growth inhibition), constant ratio Dn:DhiS-A (AmB 0.01:15)), 1.24 (moderate antagonism); in the assay on Li promastigotes (setting [3]), 1.06 (additive effect); in the assay with Li promastigotes (setting [4]) it was 0.92 (additive effect); with Li promastigotes (setting [5]) it was 0.81 (moderate synergism). Besides, the “Dose Required of Dn in combination with DhiS-A” value (“Dose Required of Dn” below) was 0.023 µM in the assay with Li promastigotes (ED10); 0.030 µM in the assay with Li promastigotes (ED25); 0.038 µM in the assay with Li promastigotes (ED50); 0.048 µM in the assay on Li promastigotes (ED75); 0.062 µM in the assay on Li promastigotes (ED90); 0.074 µM in the assay with Li promastigotes (ED95). The “DRI of Dn in combination with DhiS-A” value is 2.85 with Li promastigotes (ED10); 2.74 with Li promastigotes (ED25); 2.64 in the assay with Li promastigotes (ED50); 2.54 in the assay with Li promastigotes (ED75); 2.39 with Li promastigotes (ED90). In the assay on Li promastigotes, the “Type of interaction with DhiS-A” value is listed as “moderate synergism”. Also, the “Reduction of the number of Mφ infected, Li” value in assay [1] stood at 50.0 ± 6.93%. Also, the “Reduction of the number of amastigotes/100 Mφ, Li” value in assay [1] amounted to 57.63 ± 11.47%.
On to `COc1cc(C2Oc3cc(-c4oc5cc(O)cc(O)c5c(=O)c4O)ccc3OC2CO)ccc1O` (stereo not drawn) [Dehydrosilybin AB, dehydrosilybin AB], for which the inhibition of growth at 120 µM worked out at 17.9 ± 4.33% in the assay with Li UCM9 promastigotes (Leishmania infantum) and 9.01 ± 3.59% with Ld promastigotes. Further, the Emax with Li UCM9 promastigotes (Leishmania infantum) was less than 50%. In assay [2], this molecule yielded an IC50 of approximately 37 µM.
`COc1cc([C@@H]2Oc3cc(-c4oc5cc(O)cc(O)c5c(=O)c4O)ccc3O[C@H]2CO)ccc1O` [Dehydrosilybin B, dehydrosilybin B]: the inhibition of growth at 120 µM in the assay on Li UCM9 promastigotes (Leishmania infantum) came to 20.9 ± 11.6%; with Ld promastigotes, 38.1 ± 2.9%. Also, in assay [2], the IC50 was approximately 41.2 µM.
With `COc1cc(C2C3C=C(c4oc5cc(O)cc(O)c5c(=O)c4O)C4C2COC4(O)C3=O)ccc1O` (stereo not drawn) [Dehydrosilydianin, dehydrosilydianin], in the assay with Li UCM9 promastigotes (Leishmania infantum), the inhibition of growth at 120 µM is 42.2 ± 5.42% and the Emax is less than 50%. Moreover, in the assay with Ld promastigotes, the inhibition of growth at 120 µM turned out to be 29.8 ± 2.17%.
`COc1cc([C@H]2Oc3ccc([C@H]4Oc5cc(O)cc(O)c5C(=O)[C@@H]4O)cc3O[C@@H]2CO)ccc1O` [Isosilybin A, isosilybin A]: the inhibition of growth at 120 µM is 6.94 ± 6.43% in the assay on Li UCM9 promastigotes (Leishmania infantum) and 30.6 ± 5.85% with Ld promastigotes.
Take `NC[C@@H]1O[C@H](O[C@H]2[C@@H](O)[C@H](O[C@@H]3[C@@H](O)[C@H](N)C[C@H](N)[C@H]3O[C@H]3O[C@H](CO)[C@@H](O)[C@H](O)[C@H]3N)O[C@@H]2CO)[C@H](N)[C@@H](O)[C@@H]1O` [PMM, paromomycin sulphate]: the “CI value of combination Dn + DhiS-A” value in the assay on Li promastigotes (setting [3]) was 1.98 (antagonism); with Li promastigotes (setting [4]) it was 1.65 (antagonism); with Li promastigotes (setting [5]), 1.38 (moderate antagonism); in the assay with Li promastigotes (setting [6]), 1.23 (moderate antagonism). The “Dose Required of Dn” value with Li promastigotes (ED50) is given as 822 µM; with Li promastigotes (ED75), 1145 µM; in the assay with Li promastigotes (ED90), 1594 µM; in the assay with Li promastigotes (ED95), 1997 µM. Also, the “DRI of Dn in combination with DhiS-A” value in the assay with Li promastigotes (ED50) is on record as 39.54; with Li promastigotes (ED75), 182.9; with Li promastigotes (ED90), 845.2; in the assay with Li promastigotes (ED95) it was 2393. The “Type of interaction with DhiS-A” value in the assay with Li promastigotes is “antagonists”.
On to `COc1cc([C@H]2Oc3cc([C@H]4Oc5cc(O)cc(O)c5C(=O)[C@@H]4O)ccc3O[C@@H]2CO)ccc1O` [Silybin A, silybin A], for which the values for the inhibition of growth at 120 µM in the assay with Li UCM9 promastigotes (Leishmania infantum) and with Ld promastigotes were -3.18 ± 9.09% and 14.2 ± 7.6%, respectively.
On the same counts, the results for `COc1cc([C@@H]2Oc3cc([C@H]4Oc5cc(O)cc(O)c5C(=O)[C@@H]4O)ccc3O[C@H]2CO)ccc1O` [Silybin B, silybin B] are -3.82 ± 9.11% and 30.9 ± 5.02%.
Turning to `COc1cc([C@@H]2Oc3c(O)cc([C@H]4Oc5cc(O)cc(O)c5C(=O)[C@@H]4O)cc3[C@H]2CO)ccc1O` [Silychristin A, silychristin A], the inhibition of growth at 120 µM is 27.1 ± 8.64% in the assay on Li UCM9 promastigotes (Leishmania infantum) and 19.2 ± 5.75% in the assay with Ld promastigotes. Besides, the Emax in the assay with Li UCM9 promastigotes (Leishmania infantum) is less than 50%.
Take `COc1cc([C@@H]2[C@H]3CO[C@@]4(O)C(=O)[C@@H]2C=C([C@H]2Oc5cc(O)cc(O)c5C(=O)[C@@H]2O)[C@@H]34)ccc1O` [Silydianin, silydianin]: the inhibition of growth at 120 µM came out at 16.4 ± 8.63% in the assay with Li UCM9 promastigotes (Leishmania infantum) and 20.5 ± 3.08% with Ld promastigotes.
As to “potassium tartrate of antimonium III [Sb^III]”, in the assay with Li UCM9 promastigotes, the 50% inhibitory concentration (IC50) is approximately 80.6 µM. Further, the “CI value of combination Dn + DhiS-A” value in the assay on Li promastigotes (setting [3]) is listed as 1.89 (antagonism); with Li promastigotes (setting [4]), 2.09 (antagonism); in the assay on Li promastigotes (setting [5]) it was 2.50 (antagonism); with Li promastigotes (setting [6]), 2.93 (antagonism). For the same molecule, the “Dose Required of Dn” value is 56 µM in the assay with Li promastigotes (ED50), 141.12 µM with Li promastigotes (ED75), 355.63 µM with Li promastigotes (ED90) and 666.84 µM with Li promastigotes (ED95). In addition, the “DRI of Dn in combination with DhiS-A” value is given as 0.82 in the assay on Li promastigotes (ED50), 0.92 with Li promastigotes (ED75), 1.04 in the assay with Li promastigotes (ED90) and 1.13 in the assay on Li promastigotes (ED95). For the same molecule, the “Type of interaction with DhiS-A” value with Li promastigotes is “antagonists”.
